# Data from article PMC9503518, “Antibacterial and Antifungal Properties of a Novel Antimicrobial Peptide GK-19 and Its Application in Skin and Soft Tissue Infections Induced by MRSA or Candida albicans” (Pharmaceutics, 2022).
# Where no end group is shown, it is not given here.
# Key:
# [1] = Peptide stability in water by HPLC; format: physicochemical; conditions: 10 mg/mL in water, 37 °C, 200 rpm, 0 and 48 h, HPLC 220 nm, repeated three times
# Method: (§1) Antimicrobial peptides were dissolved in water or rat serum with a concentration of 10 mg/mL. The solution was incubated at 37 °C, 200 rpm for different time periods, and diluted 50 times for the HPLC analysis. In water, the incubation time was 0 h and 48 h. In rat serum, the incubation time was 0, 2, 4, 7, 12, 24 or 48 h. Each incubation condition was repeated three times. HPLC was conducted on a Waters HPLC system, which consisted of a 2996 photodiode array detector, a 2695 separation module and a temperature control column oven. Column: Sinochrom ODS-BP, 5 μm, 4.6 × 250 mm (Dalian Elite Analytical Instruments Co., Ltd., Dalian, China). Mobile phase: A: 100% ACN + 0.1% TFA; B: 100% Water + 0.1% TFA. Gradient elution: 0–20 min, 95% B–100% A; 20–25 min, 100% A. Detection wavelength: 220 nm. Flow rate: 1 mL/min. Sample volume: 50 μL (0.2 mg/mL).
# [2] = Peptide stability in rat serum by HPLC; format: in vitro ADME; conditions: 10 mg/mL in rat serum, 37 °C, 200 rpm, 24 h, HPLC peak area 220 nm, repeated three times; read-out: peptide remaining after 24 h of co-incubation with rat serum
# Method: as §1
# [3] = system: Human embryonic kidney cells (293)
# Method: (§2) Rat pulmonary artery smooth muscle cells (RPASMCs, primary cells separated by our laboratory) and human keratinocytes cells (HaCaT cells, Mingjing Biology, Shanghai, China) were cultured in high-glucose Dulbecco’s Modified Eagle Medium (DMEM), supplemented with 10% fetal bovine serum (FBS). Human umbilical vein endothelial cells (HUVECs, BeNa Culture Collection, Kunshan City, China) were cultured in the MCDB131 medium supplemented with 20% FBS and growth factor additives. Human embryonic kidney cells (293, Procell Life Science & Technology Co., Ltd., Wuhan, China) were cultured in minimum Eagle’s medium (MEM) supplemented with 10% FBS. All cells were cultured at 37 °C, with 5% CO2. All animals used in this study were supplied by the Medical Animal Test Center of Xi’an Jiaotong University and study protocols were approved by the Institutional Animal Care and Use Committee of the Ethics Committee of Health Science Center, Xi’an Jiaotong University (Ethical approval code: 2017-609).
# (§3) Cells were inoculated in 96-well plates at 5 × 10^3 cells/well and cultured at 37 °C under 5% CO2. The supernatant was removed, and the cells were washed three times with PBS. Next, 100 μL of fresh culture medium containing different antimicrobial peptides was added (peptide concentration: 0, 1.0, 2.0, 5.0, 10, 25, 50 and 100 μM). Each concentration was repeated five times. Then, 10 μL of CCK-8 reagent was added 48 h later, followed by another two hours of incubation. The absorbance at 450 nm was measured using the same Multilabel Reader. Cellular growth viability was calculated using the following equation:Viability (%) = (mean absorbance value of treatment group − mean absorbance value of blank group group)/(mean absorbance value of control group − mean absorbance value of blank group) × 100. (2)
# [4] = system: Human umbilical vein endothelial cells (HUVECs)
# Method: as §2, §3
# [5] = system: Rat pulmonary artery smooth muscle cells (RPASMCs)
# Method: as §2, §3
# [6] = system: human keratinocytes cells (HaCaT cells)
# Method: as §2, §3
# C. albicans = conditions: mouse, in vivo, 2 h, 50 μM
# Method: (§4) The scalded mice models combined with SSTIs by MRSA or C. albicans were constructed. Fifty normal male Kunming mice (5–6 weeks old) weighing ~25 g were anesthetized by isoflurane using a small animal anesthesia machine (R640, RWD Life Science, China). After skin preparation and disinfection, a custom-made circular iron (diameter: 8 mm) (shown in Figure S4) was applied to both sides of the spine of the mice for 10 s at 300 °C, resulting in four scalded wounds. Mice were injected subcutaneously with 5 mg/kg meloxicam (Aladdin, Shanghai, China) for four days (once per day) after scalding for pain relief. Two days after scalding, the skin tissues of the scalded areas were removed carefully, and about 30 μL of 1 × 10^7 CFU/mL of MRSA or C. albicans was applied evenly onto the surfaces of the wounds. The mice were returned to the original feeding environment after the microbial fluid was completely absorbed (1.5–2 h), with two mice per cage. Corncob granules with SPF level were used as padding.
# (§5) Two days after microbe inoculating, the scalded wounds of each mouse were divided into four groups randomly. […] The mice were returned to the original feeding environment after the solutions were completely absorbed. The treatment lasted for 12–16 days. Photographs of the wound areas were taken every two days using an iPhone 11 and the wound areas were measured every two days using Image J software (152-win-java8, Bethesda, MD, USA). The average wound areas on day two were used as the reference (100% unhealed) to normalized wound areas. Skin tissues of the wound areas were removed carefully at different time points (n = 5 for each time point) and weighted in a sterile environment. For MRSA infection, 10 mg of the wound tissues was dispersed into 1000 μL of sterile saline solution and the tissue solution was ground into suspension in a tissuelyser (Tissuelyser LT, Servicebio). Then, the tissue suspension was diluted with sterile saline solution 10 times and plated on MHA with a sample volume of 50 μL. For C. albicans infection, 10 mg of the wound tissues was dispersed into 200 μL of sterile saline solution and the tissue solution was also ground into suspension in the tissuelyser. The tissue suspension was then plated on PDA directly with a sample volume of 20 μL. After culturing overnight, the colonies were counted using Image J software or human eyes. In addition, the skin tissues of the wound area were removed carefully at different time points and dispersed into a 4% paraformaldehyde solution for further use.
# (§6) The hematoxylin and eosin staining in this study was carried out by Servicebio (Wuhan, China). Briefly, the obtained skin tissues were soaked in 4% paraformaldehyde solution (Beyotime, China) and fixed for more than 24 h. Then, they were dehydrated and embedded with paraffin, and tissue sections having thicknesses of 4 μm were prepared. After deparaffinization and rehydration, hematoxylin and eosin staining was performed.
# MRSA = conditions: mouse, in vivo, 2 h, 50 μM
# Method: as §4, §5, §6
# rat erythrocytes = conditions: rat RBC suspension in PBS, up to 100 μM, 37 °C, 1 h, OD 576 nm, 1% Triton X-100 = 100%, six replicates
# Method: The hemolysis assay was carried out as reported in the literature [22]. Briefly, healthy male rats weighing ~300 g were anesthetized by isoflurane using a small animal anesthesia machine (R640, RWD Life Science, Shenzhen, China). Fresh rat blood samples were drawn from the ventral main vein and collected into an ethylene diamine tetraacetic acid (EDTA) treated anticoagulation tube. The collected blood samples were centrifuged at 4 °C, 350× g for five minutes. Red blood cells (RBCs) were pipetted and washed three times with cold PBS. […] These tubes were incubated at 37 °C, 1000 rpm in a BG200 dry bath incubator (Hangzhou LongGene Scientific Instruments Co., Ltd., Hangzhou, China) for 1 h. Then, the tubes were centrifuged at 350× g for 5 min. Next, 20 μL of the supernatants was mixed with 180 μL of PBS. Afterwards, 100 μL of the mixture was transferred into 96-well plates and hemoglobin release was monitored at 576 nm using a Multilabel Reader Varioskan Flash (Thermo Fisher). The RBC suspension in PBS was used as a negative control. The absorbance of the wells containing 1% Triton X-100 was taken as 100% hemolysis. The percentage of hemolysis was calculated using this formula:Hemolysis (%) = [(OD576 nm of the peptide solution − OD576 nm of the negative control)/(OD576 nm of the positive control − OD576 nm of the negative control)] × 100. (3) […]
sequence,measurement,setting,value
GFLFKLIPKAIKKLISKFK [GK-19],time for which structural stability was retained in water,[1],≥ 48 h
same,"remaining at 24 h, 10 mg/mL",[2],> 50%
same,"cytotoxicity at the effective antimicrobial concentration, 293 cells",[3],almost no apoptotic cells
same,"cell viability, 293 cells",[3]; 100 µM,less than 20%
same,"cytotoxicity at the effective antimicrobial concentration, HUVECs",[4],almost no apoptotic cells
same,"cell viability, HUVECs",[4]; 100 µM,less than 20%
same,"cytotoxicity at the effective antimicrobial concentration, RPASMCs",[5],almost no apoptotic cells
same,"cell viability, RPASMCs",[5]; 100 µM,less than 20%
same,"cytotoxicity at the effective antimicrobial concentration, HaCaT",[6],almost no apoptotic cells
same,"cells surviving, HaCaT","[6]; 48 h, 100 μM",more than 42%
same,C. albicans suppressed (inhibition rate) at day eight compared with saline solution groups,C. albicans,more than 97%
same,MRSA suppressed (inhibition rate) at day eight compared with saline solution groups,MRSA,more than 95%
same,hemolytic activity,rat erythrocytes,negligible hemolytic activity
